Like-named read-outs stand apart in the source and are kept apart here.

Assay [1] concerns parental UACC-257X2.2 cells. In words: In vitro cell proliferation (CellTiter-Glo, five days). It is filed as cell-based. The settings on record: parental line. The method, then: (§1) In vitro cell proliferation of the cell lines in the presence of the immunoconjugates was assessed. Cells were plated at 1,500 cells per well in 50 μL of normal growth medium in 96-well clear-bottom plates. Twenty-four hours later, an additional 50 μL of culture medium with serial dilutions of immunoconjugates were added to triplicate wells. Five days later, cell survival was determined using CellTiter-Glo Luminescent Cell Viability Reagent (G7572, Promega Corporation, Madison, Wis.) using an EnVision 2101 Mutilabel Reader (Perkin-Elmer, Waltham, Mass.).
Background: In ATP-based viability assays light output follows the ATP content of the culture.

In assay [2] the test system is in vivo derived resistant UACC-257X2.2 cells. Described as above. Type of assay: cell-based. The settings on record: in vivo derived resistant line. The protocol:
Tumor #359 was harvested and the cells were dissociated for growth in vitro (referred to herein as in vivo-derived resistant UACC-257X2.2 cells).
as §1

The subject of assay [3] is in vitro derived resistant UACC-257X2.2 cells. The description is as above. It is filed as cell-based. As to conditions: in vitro derived resistant line. The method, then:
For resistance developed in vitro, UACC-257X2.2 cells were adapted to increasing concentrations of anti-ETBR-vc-MMAE in culture dishes over the course of two months.
as §1

Assay [4] deals with PC3 cells stably expressing PMEL17. The experiment in a line: Inhibition of in vitro cell proliferation (CellTiter-GloII). Type of assay: cell-based. The protocol: Proliferation in the presence of 17A9 ADC was assessed using PMEL17+ melanoma cells and PC3 cells stably expressing PMEL17 plated at 2,000 per well in 50 μL of normal growth medium in 96-well clear-bottom plates (PerkinElmer). Twenty-four hours later, an additional 50 μL of culture medium with serial dilutions of 17A9 ADC were added to triplicate wells. Three or five days later, cell numbers were determined using CellTiter-GloII (Promega Corp.) and with an EnVision 2101 Mutilabel Reader (PerkinElmer).

Assay [5] relates to vector control PC3 parental cell line. The description is as above. Type of assay: cell-based. The settings on record: out to 10 μg/ml of ADC.
The subject of assay [6] is normal human melanocytes. The experiment in a line: Toxicity of anti-PMEL17 ADC in normal melanocytes (CellTiter-GloII, five days). Type of assay: cell-based. As to conditions: versus SK-MEL-5 and SK-MEL-23, five days. The method, then:
Finally, SK-MEL-5 and SK-MEL-23 melanoma cells, or normal human melanocytes, were incubated with serial dilutions of the 17A9 ADC and five days later cell numbers were determined using CellTiter-GloII.

The subject of assay [7] is SK-MEL-23 melanoma cell line xenograft. In words: SK-MEL-23 melanoma cell line xenograft. It is filed as in vivo, mice. As to conditions: single IV injection, 6 mg/kg. The method, then: The efficacy of the anti-PMEL17 ADCs was investigated using an SK-MEL-23 melanoma cell line xenograft model. Female CRL Nu/Nu mice from Charles River Laboratories were inoculated subcutaneously in the dorsal right flank with five million SK-MEL-23 cells in HBSS with Matrigel. […] When tumor volumes reached ˜200 mm^3 (day 0), animals were randomized into groups of 10 each and administered a single IV injection of 2 or 6 mg/kg 17A9 ADC. MMAE conjugated to anti-GP120 antibody was used as a control. Tumor volumes were measured twice per week until study end. Tumor volumes were determined using digital calipers (Fred V. Fowler Company, Inc.) using the formula (L×w×W)/2. Tumor growth inhibition (% TGI) was calculated as the percentage of the area under the fitted curve (AUC) for the respective dose group per day in relation to the vehicle, such that % TGI=100×[1−(AUCtreatment/day)/(AUCvehicle/day)]. Curve fitting was applied to Loge transformed individual tumor volume data using a linear mixed-effects model using the R package nlme, version 3.1-96 in R v2.10.1.

Assay [8] deals with human PMEL17. In words: Monoclonal antibody epitope mapping with PMEL17 deletion mutants (immunoblot, FACS). It is filed as binding. The settings on record: N-terminal deletions by immunoblot; C-terminal deletions in 293 cells by FACS. The method, then: All the constructs for epitope mapping were made by PCR amplification of each fragment and subcloning into either pRKtkneo vector with an N-terminal gD tag, or pRKtkneo vector with an N-terminal gD tag and a C-terminal GPI anchor. Transfections were performed using FuGene 6 (Roche Applied Science), and empty vector was used as control. Full-length human PMEL17 was subcloned into pRKtkneo vector with an N-terminal gD tag.
A signal sequence and a gD epitope tag were fused to the N-terminal sequence of a series of deletion mutants, which were then expressed in mammalian cells and the lysates analyzed by immuoblotting for reactivity with 17A9 or 77E6. The N-terminal deletions tested included Δ100, Δ255, Δ292, Δ315, Δ444, Δ515, and Δ567.
In addition, C-terminal deletions with an N-terminal gD tag and a C-terminal GPI anchor were transiently transfected into 293 cells and analyzed for antibody binding by FACS. The C-terminal deletions tested included PMEL1725-125, PMEL1725-105, PMEL1725-85, PMEL1725-65, and PMEL1725-45. Finally, a PMEL17 fragment comprising the region from amino acid 515 through the transmembrane domain, but lacking the cytoplasmic region (“Δ515-C”) and a PMEL17 fragment comprising just the cytoplasmic domain with an N-terminal gD tag and a C-terminal GPI anchor were analyzed by immuoblotting for reactivity with 77E6.
A general note: In western blotting, separated proteins are transferred to a membrane and probed.

Where [9] appears, read: linker-drug without antibody, read-out: EC50.

In general, EC50 refers to the concentration that produces a half-maximal response. MC-PNU-159682: the values for the EC50 in assay [1] (setting [9]), in assay [2] (setting [9]) and in assay [3] (setting [9]) were 0.18 nM, 0.133 nM and 0.15 nM, respectively.

As to MC-vc-PAB-MMAE, the EC50 in assay [1] (setting [9]) stood at 0.28 nM; in assay [2] (setting [9]), 0.77 nM; in assay [3] (setting [9]) it was 3.5 nM.

As for MC-vc-PAB-PNU-159682, the EC50 in assay [1] (setting [9]) turned out to be 2 nM; in assay [2] (setting [9]), 4.2 nM; in assay [3] (setting [9]), 6.6 nM.

B1: 17A9 ADC (conjugate)
VH: EVQLQQSGPELVKPGASMKISCKSSGYSFTRYTMNWVKQSHGKNLEWIGVINPYNGGTVYNQKFKGKATLTVDKSSSTAYMELLSLTSEDSAVYYCARTDYDGYAMDYWGQGTSVTVSS
VL: DVQITQSPSYLAASPGETITINCRATKSISKYLAWYQEQPGKTNNLLIYSGSTLQSGIPSRFSGSGSGTDFTLTISSLEPEDFAMYYCQQHNEYPYTFGSGTKLEIK
For the molecule B1, the values for the cell killing result in assay [4] and in assay [5] were “effectively killed” and “no killing”, respectively. For the same molecule, the “IC50 on normal melanocytes relative to melanoma cell lines” value in assay [6] was roughly 100 fold. In addition, the “effect on tumor growth” value in assay [7] is “retard tumor growth for several weeks”.

B2: anti-PMEL17-vc-MMAE: anti-PMEL17 ADC with protease-cleavable val-cit linker and MMAE (17A9 or ch17A9 with MC-vc-PAB-MMAE) (conjugate)
VH: B1 VH
VL: B1 VL
Turning to B2, the EC50 in assay [1] (immunoconjugates) was determined as 0.033 µg/mL; in assay [2] (immunoconjugates) it was 0.119 µg/mL; in assay [3] (immunoconjugates) it was 0.764 µg/mL.

B3: 14C10: anti-PMEL17 antibody that binds to the same deletion fragments as 17A9 (antibody, V domains shown)
VH: QVTLKESGPGILQPSQTLSLTCSFSGFSLSTSAMGIGWIRQPSGKGLEWLAHIWWDDDKRYNPALKSRLTISKDTSRNQVFLKIASVDTADTATYFCARIDGIYDGSFYAMDYWGQGTSVTVSS
VL: DIVLTQSPASLAVSLGQRATISCRASESVDSYGNSFMHWYQQKPGQPPKLLIYRASNLESGIPARFSGSGSRTDFTLTINPVEADDVANYYCQQSNEDYTFGGGTKLEIK
Take B3: the “binding to PMEL17 deletion mutants” value in assay [8] was “binds to the same deletion fragments as 17A9”.

The record behind these values is patent publication US10196454B2, “Anti-PMEL17 antibodies and immunoconjugates” (GENENTECH, INC., priority 2012, dated 2019).
